# Source: article PMC12345137 (mBio, 2025)
# Like-named read-outs stand apart in the source and are kept apart here. Positions of bridges follow the written chain, without caps; N, C: chain ends. Residues, ends and D or L forms follow the SMILES beside them.
# Assays:
# [1] = test system: S. epidermidis (SE) agr-III; conditions: fluorescence; ref (13); cited from earlier work
# S. aureus (SA) agr-II = conditions: fluorescence, cited from earlier work
# SA AgrC-I [2] = molecular target: T1, SA AgrC-I (Staphylococcus aureus, UniProt O07911); test: β-Lactamase assay, reporter strain RN10829 (P2-agrA:P3-blaZ) with pagrC-I; type: cell-based
# Text: The β-lactamase reporter strain RN10829 (P2-agrA:P3-blaZ) ([62]), with pagrC-I ([63]), pagrC-II, pagrC-III, or pagrC-IV ([11]), substituting the native agr locus with a chromosomal integration of P2-agrA and P3-blaZ and a plasmid from which a wild-type variant of the corresponding AgrC is expressed, was used to assess inhibition and activation of the AgrC receptor via β-lactamase activity in response to varying concentrations of the QS modulating peptides. Overnight cultures of the reporter strains in TSB medium were diluted 1:250 in fresh TSB medium and grown to OD600 = 0.35–0.40 (early exponential phase) at 37°C. Peptide solutions (10 μL) in 1:10 serial dilutions from DMSO stock solutions (1 mM) in TSB medium (final concentrations = 10 μM–10 pM) were added to each well of a clear 96-well plate as well as solutions (10 μL) of cognate AIP (final concentration = 100 nM) in TSB medium followed by 80 μL of bacterial cells. […] The 96-well plates were incubated at 37°C shaking at 200 rpm for 1 h and immediately frozen down at −80°C to minimize growth during nitrocefin treatment. Next, the 96-well plates were thawed, and OD600 values were determined using a plate reader followed by the addition of 50 μL of nitrocefin solution to the wells (final concentration = 33.3 μg/mL). β-Lactamase activity was monitored at OD486 every 20 s for 10 min at 37°C using a plate-reader. Linear nitrocefin conversion rates were plotted to obtain IC50 values by non-linear regression with variable slope using GraphPad Prism 10.4 software. Assays were performed at least as duplicate determinations in biological triplicate.
# S. aureus (SA) agr-I = conditions: fluorescence, cited from earlier work
# S. epidermidis agr-I = S. epidermidis agr-I (Staphylococcus epidermidis, UniProt Q5HMY3); test: cell-based; type: cell-based; conditions: fluorescent reporter strain; peptides tested at 1000, 50, 2.5, 0.125 nM or in dose-response
# Description: (§1) Peptides were evaluated for the ability to interfere with agr-mediated quorum sensing in S. aureus (AH1677, AH430, AH1747, and AH1872 for agr-I–IV, respectively) ([40]) using reporter strains expressing yellow fluorescent protein (YFP) upon agr activation. Interference with agr-mediated quorum sensing in S. epidermidis (AH3408, AH3623, and AH3409 for agr-I–III, respectively) ([45]), and S. lugdunensis (AH4031 for agr-I) ([37]) was evaluated using reporter strains expressing superfolder green fluorescent protein (sGFP) upon agr activation. Overnight cultures of the reporter strains were grown in TSB medium containing chloramphenicol (CAM, 10 μg/mL for S. aureus) or erythromycin (ERM, 10 μg/mL of S. epidermidis and S. lugdunensis) and diluted 1:100 in fresh TSB medium containing the same antibiotic. Assays were performed in sterile black 96-well plates with a clear bottom. […] DMSO stock solutions of peptides (1 mM) were diluted in TSB media and added (15 μL) in technical triplicate to the 96-well plate, followed by diluted bacterial overnight cultures (135 μL). […] Wells containing 150 μL TSB medium were used to measure background fluorescence. The 96-well plates were incubated in a humidified incubator at 37°C shaking at 1,000 rpm for 22–24 h and fluorescence (for GFP: excitation 479 nm, emission 520 nm; for YFP: excitation 500 nm, emission 541 nm; automatic gain), and OD600 values were subsequently measured using a plate reader. Background fluorescence was subtracted from all wells and further normalized to the corresponding OD600 value of the respective wells. The average fluorescence of control wells was used as a relative measure for 100% activation of the agr-circuit, and bar graphs were generated using GraphPad Prism 10.4 software. All assays were performed in at least a biological duplicate.
# Overnight cultures of the reporter strains were grown in TSB medium containing chloramphenicol (CAM, 10 μg/mL for S. aureus) or erythromycin (ERM, 10 μg/mL of S. epidermidis and S. lugdunensis) and diluted 1:100 in fresh TSB medium containing the same antibiotic. Assays were performed in sterile black 96-well plates with clear bottoms. Peptide solutions (15 μL) in 1:5 serial dilutions from DMSO stock solutions (1 mM) in TSB medium were added to the 96-well plate in technical duplicate followed by diluted bacterial overnight cultures (135 μL). […] Wells containing 150 μL TSB medium were used to measure background fluorescence. The 96-well plates were incubated in a humidified incubator at 37°C shaking at 1,000 rpm for 22–24 h and fluorescence (for GFP: excitation 479 nm, emission 520 nm; for YFP: excitation 500 nm, emission 541 nm; automatic gain), and OD600 values were subsequently measured using a plate reader. Background fluorescence was subtracted from all wells and further normalized to the corresponding OD600 value of the respective wells. The average fluorescence of control wells was used as a relative measure for 100% activation of the agr-circuit. Relative agr activity was plotted to obtain IC50 values by non-linear regression with variable slope using GraphPad Prism 10.4 software. All assays were performed in biological triplicate.
# S. aureus (SA) agr-IV = conditions: fluorescence, cited from earlier work
# SA AgrC-IV = SA AgrC-IV (Staphylococcus aureus, UniProt Q309Z2); test: β-Lactamase assay, reporter strain RN10829 (P2-agrA:P3-blaZ) with pagrC-IV; type: cell-based; conditions: 100 nM cognate AIP; ± SEM; -b = no inhibition recorded at the highest AIP concentration tested; -a = only partial inhibition observed; this study (curves in Fig. S22)
# Text: (§2) The β-lactamase reporter strain RN10829 (P2-agrA:P3-blaZ) ([62]), with pagrC-I ([63]), pagrC-II, pagrC-III, or pagrC-IV ([11]), substituting the native agr locus with a chromosomal integration of P2-agrA and P3-blaZ and a plasmid from which a wild-type variant of the corresponding AgrC is expressed, was used to assess inhibition and activation of the AgrC receptor via β-lactamase activity in response to varying concentrations of the QS modulating peptides. Overnight cultures of the reporter strains in TSB medium were diluted 1:250 in fresh TSB medium and grown to OD600 = 0.35–0.40 (early exponential phase) at 37°C. Peptide solutions (10 μL) in 1:10 serial dilutions from DMSO stock solutions (1 mM) in TSB medium (final concentrations = 10 μM–10 pM) were added to each well of a clear 96-well plate as well as solutions (10 μL) of cognate AIP (final concentration = 100 nM) in TSB medium followed by 80 μL of bacterial cells. Control wells for 100% β-lactamase activity were wells replacing peptide solution with TSB media (10 μL), and control wells for 0% β-lactamase activity were wells replacing both peptide and cognate AIP solutions with TSB medium (20 μL). The 96-well plates were incubated at 37°C shaking at 200 rpm for 1 h and immediately frozen down at −80°C to minimize growth during nitrocefin treatment. Next, the 96-well plates were thawed, and OD600 values were determined using a plate reader followed by the addition of 50 μL of nitrocefin solution to the wells (final concentration = 33.3 μg/mL). β-Lactamase activity was monitored at OD486 every 20 s for 10 min at 37°C using a plate-reader. Linear nitrocefin conversion rates were plotted to obtain IC50 values by non-linear regression with variable slope using GraphPad Prism 10.4 software. Assays were performed at least as duplicate determinations in biological triplicate.
# S. aureus (SA) agr-III = conditions: fluorescence, cited from earlier work
# SA AgrC-III = SA AgrC-III (Staphylococcus aureus, UniProt O33590); test: β-Lactamase assay, reporter strain RN10829 (P2-agrA:P3-blaZ) with pagrC-III; type: cell-based
# Text: as §2
# SA AgrC-II = SA AgrC-II (Staphylococcus aureus, UniProt O33587); test: β-Lactamase assay, reporter strain RN10829 (P2-agrA:P3-blaZ) with pagrC-II; type: cell-based
# Text: as §2
# [3] = test system: S. epidermidis (SE) agr-II; conditions: fluorescence; ref (13); cited from earlier work
# SA AgrC-I [4] = molecular target: T1, SA AgrC-I; conditions: 100 nM cognate AIP; ± SEM; -b = no inhibition recorded at the highest AIP concentration tested; determined previously; ref (1); read-out: IC50, SA AgrC-I, b-lactamase assay; cited from earlier work
# S. aureus agr-III = S. aureus agr-III (Staphylococcus aureus, UniProt O33590); test: cell-based; conditions: fluorescent reporter strain; peptides tested at 1000, 50, 2.5, 0.125 nM or in dose-response
# Description: as §1, with “μL). Control wells for 100% agr activity were wells replacing the peptide solution with TSB medium (15 μL).” for “μL).”
# (§3) Overnight cultures of the reporter strains were grown in TSB medium containing chloramphenicol (CAM, 10 μg/mL for S. aureus) or erythromycin (ERM, 10 μg/mL of S. epidermidis and S. lugdunensis) and diluted 1:100 in fresh TSB medium containing the same antibiotic. Assays were performed in sterile black 96-well plates with clear bottoms. Peptide solutions (15 μL) in 1:5 serial dilutions from DMSO stock solutions (1 mM) in TSB medium were added to the 96-well plate in technical duplicate followed by diluted bacterial overnight cultures (135 μL). Control wells for 100% agr activity were wells replacing the peptide solution with TSB medium (15 μL). Wells containing 150 μL TSB medium were used to measure background fluorescence. The 96-well plates were incubated in a humidified incubator at 37°C shaking at 1,000 rpm for 22–24 h and fluorescence (for GFP: excitation 479 nm, emission 520 nm; for YFP: excitation 500 nm, emission 541 nm; automatic gain), and OD600 values were subsequently measured using a plate reader. Background fluorescence was subtracted from all wells and further normalized to the corresponding OD600 value of the respective wells. The average fluorescence of control wells was used as a relative measure for 100% activation of the agr-circuit. Relative agr activity was plotted to obtain IC50 values by non-linear regression with variable slope using GraphPad Prism 10.4 software. All assays were performed in biological triplicate.
# S. aureus agr-IV = S. aureus agr-IV (Staphylococcus aureus, UniProt Q309Z2); test: cell-based; type: cell-based; conditions: fluorescent reporter strain; peptides tested at 1000, 50, 2.5, 0.125 nM or in dose-response
# Description: as §1, with “μL). Control wells for 100% agr activity were wells replacing the peptide solution with TSB medium (15 μL).” for “μL).”
# as §3
# T1 sequence (O07911 entry or part of it): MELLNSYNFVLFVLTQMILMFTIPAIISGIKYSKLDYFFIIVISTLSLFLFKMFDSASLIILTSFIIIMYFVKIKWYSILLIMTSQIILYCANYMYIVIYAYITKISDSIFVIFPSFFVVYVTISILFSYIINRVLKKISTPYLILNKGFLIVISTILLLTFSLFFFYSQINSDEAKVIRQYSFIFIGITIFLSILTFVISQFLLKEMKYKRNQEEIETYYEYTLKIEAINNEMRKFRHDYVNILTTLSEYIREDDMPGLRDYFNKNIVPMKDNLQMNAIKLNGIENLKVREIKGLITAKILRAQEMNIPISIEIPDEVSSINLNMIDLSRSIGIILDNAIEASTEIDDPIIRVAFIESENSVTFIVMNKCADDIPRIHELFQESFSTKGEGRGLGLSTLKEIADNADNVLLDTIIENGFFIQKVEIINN
# S. epidermidis agr-I, sequence (Q5HMY3 entry or part of it): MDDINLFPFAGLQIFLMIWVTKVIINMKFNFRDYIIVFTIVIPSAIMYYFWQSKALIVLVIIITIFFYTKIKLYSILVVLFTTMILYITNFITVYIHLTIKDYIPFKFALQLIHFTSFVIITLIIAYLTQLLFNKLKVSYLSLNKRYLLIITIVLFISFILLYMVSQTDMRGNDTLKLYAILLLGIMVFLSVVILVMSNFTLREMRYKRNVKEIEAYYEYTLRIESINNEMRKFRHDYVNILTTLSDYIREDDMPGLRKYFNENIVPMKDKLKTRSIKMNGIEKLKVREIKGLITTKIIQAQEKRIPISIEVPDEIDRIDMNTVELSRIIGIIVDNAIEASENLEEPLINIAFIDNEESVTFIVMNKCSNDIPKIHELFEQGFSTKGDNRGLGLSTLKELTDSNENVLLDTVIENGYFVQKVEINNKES
# SA AgrC-III, sequence (O33590 entry or part of it): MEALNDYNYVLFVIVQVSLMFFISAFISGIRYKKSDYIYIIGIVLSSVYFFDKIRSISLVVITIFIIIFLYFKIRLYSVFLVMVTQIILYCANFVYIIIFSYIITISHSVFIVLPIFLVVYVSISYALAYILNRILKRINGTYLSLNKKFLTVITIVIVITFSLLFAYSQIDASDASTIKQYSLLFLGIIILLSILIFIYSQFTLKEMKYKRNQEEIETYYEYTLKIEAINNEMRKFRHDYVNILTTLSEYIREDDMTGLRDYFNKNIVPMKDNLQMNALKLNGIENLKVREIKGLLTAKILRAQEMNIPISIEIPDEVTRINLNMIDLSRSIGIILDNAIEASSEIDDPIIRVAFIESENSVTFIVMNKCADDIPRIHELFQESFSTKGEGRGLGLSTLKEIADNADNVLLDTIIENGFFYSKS
# S. aureus agr-III, sequence (O33590 entry or part of it): as above
# SA AgrC-II, sequence (O33587 entry or part of it): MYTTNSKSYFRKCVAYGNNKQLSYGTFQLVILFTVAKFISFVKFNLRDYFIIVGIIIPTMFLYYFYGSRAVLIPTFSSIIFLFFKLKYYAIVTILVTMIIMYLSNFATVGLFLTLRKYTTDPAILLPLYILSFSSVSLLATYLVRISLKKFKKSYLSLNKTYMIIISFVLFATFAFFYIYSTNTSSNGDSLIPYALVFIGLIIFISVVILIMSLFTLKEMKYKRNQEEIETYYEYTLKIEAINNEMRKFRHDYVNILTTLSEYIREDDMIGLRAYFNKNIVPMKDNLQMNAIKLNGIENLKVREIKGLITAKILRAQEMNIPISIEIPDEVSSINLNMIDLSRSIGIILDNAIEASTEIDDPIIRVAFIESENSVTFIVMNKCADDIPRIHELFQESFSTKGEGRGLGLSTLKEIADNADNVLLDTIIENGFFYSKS
# SA AgrC-IV, sequence (Q309Z2 entry or part of it): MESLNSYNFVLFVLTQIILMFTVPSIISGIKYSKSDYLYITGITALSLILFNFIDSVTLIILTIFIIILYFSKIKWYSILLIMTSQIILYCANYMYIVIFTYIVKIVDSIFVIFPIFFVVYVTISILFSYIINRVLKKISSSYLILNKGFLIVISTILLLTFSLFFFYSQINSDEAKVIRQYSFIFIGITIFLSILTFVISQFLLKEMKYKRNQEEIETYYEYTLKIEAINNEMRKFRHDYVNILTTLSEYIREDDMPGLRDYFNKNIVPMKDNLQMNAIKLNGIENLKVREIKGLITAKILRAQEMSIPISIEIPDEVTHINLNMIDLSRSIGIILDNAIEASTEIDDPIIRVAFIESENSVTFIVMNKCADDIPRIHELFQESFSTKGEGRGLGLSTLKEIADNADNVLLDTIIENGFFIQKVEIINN
# S. aureus agr-IV, sequence (Q309Z2 entry or part of it): as above
compound,measurement,setting,value
"CC(C)[C@H](NC(=O)[C@H](CC(N)=O)NC(=O)[C@H](Cc1ccc(O)cc1)NC(=O)[C@@H](N)CO)C(=O)N[C@H]1CSC(=O)[C@H](Cc2ccccc2)NC(=O)[C@H](Cc2ccc(O)cc2)NC(=O)CNC(=O)CNC1=O [compound 10, S. hominis AIP-I] (H-SYNVCGGYF; thioester 5-C; N-terminus assumed)",IC50,[1],16 nM
same,"inhibition by supernatant, SA agr-II","S. aureus (SA) agr-II; by supernatant, ref (12)",~ 70%
same,IC50,S. aureus (SA) agr-II; ref (13),31 nM
same,IC50,SA AgrC-I [2],224 ± 37 nM
same,IC50,S. aureus (SA) agr-I; ref (12),0.624 nM
same,IC50,S. aureus (SA) agr-I; ref (13),13 nM
same,"QS interaction in words (inhibition / activation), S. epidermidis agr-I",S. epidermidis agr-I,activates
same,"inhibition by supernatant, SA agr-IV","S. aureus (SA) agr-IV; by supernatant, ref (12)",no inhibition
same,IC50,S. aureus (SA) agr-IV; ref (13),2910 nM
same,"IC50, SA AgrC-IV, b-lactamase assay",SA AgrC-IV,-b
same,"inhibition by supernatant, SA agr-III","S. aureus (SA) agr-III; by supernatant, ref (12)",~ 80%
same,IC50,S. aureus (SA) agr-III; ref (13),5 nM
same,IC50,SA AgrC-III,338 ± 83 nM
same,IC50,SA AgrC-II,> 1000 nM
same,IC50,[3],34 nM
S. lugdunensis AIP-II (DMCNGYF; not fully specified; cyclic: thiolactone between Cys3 side-chain thiol and C-terminal Phe7 carboxyl; free N-terminus) [compound 9],IC50,SA AgrC-I [4],> 1000 nM
S. saprophyticus AIP-I (INPCFGYT; not fully specified; cyclic: thiolactone between Cys4 side-chain thiol and C-terminal Thr8 carboxyl; free N-terminus) [compound 19],IC50,SA AgrC-I [4],360 ± 30 nM
S. simulans AIP-II P4A [compound 39],"QS interaction in words (inhibition / activation), S. aureus agr-III",S. aureus agr-III,activator
same,"QS interaction in words (inhibition / activation), S. aureus agr-IV",S. aureus agr-IV,activator
